≈ marks a conversion by molar mass, not a printed value. Like-named read-outs stand apart in the source and are kept apart here. Square brackets hold non-standard residues; d marks the D form. Primed or numbered codes have the meaning given here. Peptide text beside a SMILES is read from it. * marks the point of attachment. Orn(α-tetramethylguanidino) = CN(C)C(=N[C@@H](CCCN)C(=O)*)N(C)C; Guan″ = guanidino group at the N-terminus, N=C(N)*; tPEG5000 = PEG of 5000 linked via thiol group; Guan = N-guanidino (N-terminal), N=C(N)*; Hyp = O=C(O)[C@@H]1C[C@@H](O)CN1; Tle = CC(C)(C)[C@H](N)C(=O)O; Orn = NCCC[C@H](N)C(=O)O
Legend:
[1] = tested on: Escherichia coli strain BL21AI; assay: Minimum inhibitory concentration in 1% TSB; type: cell-based; conditions: E. coli BL21AI, 1% TSB, 20 hours at 37° C.
Description: (§1) To that end, the peptides were dissolved in water and diluted in a two-fold dilution series with 1% aqueous soybean medium (TSB) in sterile 96-well plates (Greiner Bio-One GmbH) from 128 μg/ml in twelve dilution steps to 62.5 ng/ml. Overnight cultures of Escherichia coli strain BL21AI were adjusted with 1% TSB to about […] colony forming units per ml. In each case 50 μl of peptide solution per well were then mixed with in each case 50 μl of the bacteria solution, in order to achieve a starting concentration of 4×10^5 bacteria per well. After incubation for 20 hours at 37° C., the absorption at 595 nm was determined (microplate reader, TECAN Trading AG).

[2] = tested on: Escherichia coli strain BL21AI; assay: Minimum inhibitory concentration in TSB in the presence of 25% mouse serum; type: cell-based; conditions: E. coli BL21AI, TSB with 25% mouse serum, 20 hours at 37° C.
Description: as §1
In addition, the antibacterial activity was also determined in the presence of 25% mouse serum. To that end, the MIC values were determined as described above, but 25 μl of mouse serum were also added to each well before the incubation (25% final concentration).

[3] = mouse; for uncleaved peptide remaining after the indicated time (instead of half-life): serum, 15 µg/ml
Description: 30 μl of a 1 mg/ml peptide solution were diluted with 120 μl of water and, after addition of 50 of serum, incubated at 37° C. for 0 hours, 0.5 hour, 1 hour, 2 hours or 4 hours. Alternatively, the peptide derivatives having a starting concentration of 3 mg/ml were diluted with serum to a final concentration of 15 μg/ml. According to the stability of the peptides, the samples were analysed at the times mentioned above or after 0 hours, 4 hours and 6 hours. The serum proteins were precipitated by addition of 50 μl of 15% TCA, and the supernatant was neutralised with 25 μl of 1 mol/l NaOH. The samples were made up to 250 μl with 5% B, 230 μl of the solution were transferred into a HPLC vial, and 220 μl were injected.
RP-HPLC analysis was carried out with a linear acetonitrile gradient (Biosolve BV, Valkenswaard, Netherlands) in the presence of 0.1% trifluoroacetic acid (TFA, UV grade, Fluka Chemie GmbH, Buchs, Switzerland) as ion-pair reagent. The fractions were co-crystallised with α-cyanohydroxycinnamic acid (Bruker Daltonik GmbH; Bremen, Germany) as matrix (4 mg/ml in 60% acetonitrile in 0.1% aqueous TFA) and analysed with a tandem mass spectrometer (MALDI-TOF/TOF-MS, 4700 Proteomics Analyzer; Applied Biosystems GmbH, Weiterstadt, Germany) in positive-ion reflector mode. The amount of intact peptides and their degradation products or metabolites could thus be identified and quantified at the individual times. 25% aqueous mouse serum, which was analysed in parallel for the same time intervals, was used as control.

mouse serum (100%) = conditions: 37° C., up to 6 hours

Molecule	MIC in TSB [1] [µM]	Half-life (t1/2) in serum [3] [min]	also measured
CC[C@H](C)[C@H](NC(=O)[C@H](Cc1ccc(O)cc1)NC(=O)[C@@H](NC(=O)[C@@H]1CCCN1C(=O)[C@H](CCCNC(=N)N)NC(=O)[C@H](CC(N)=O)NC(=O)[C@H](CC(N)=O)NC(=O)[C@H](CCCN)N=C(N(C)C)N(C)C)C(C)C)C(=O)N1CCC[C@H]1C(=O)N[C@@H](CCCNC(=N)N)C(=O)N1CCC[C@H]1C(=O)N[C@@H](CCCNC(=N)N)C(=O)N1CCC[C@H]1C(=O)N1CCC[C@H]1C(=O)N[C@@H](Cc1c[nH]cn1)C(=O)N1CCC[C@H]1C(=O)N[C@@H](CCCNC(=N)N)C(=O)N[C@@H](CC(C)C)C(N)=O [Api 88, Guan-ONNRPVYIPRPRPPHPRL-NH2, reference compound] ({Orn(α-tetramethylguanidino)}-NNRPVYIPRPRPPHPRL-NH2)	0.44 (≈ 1.01 µg/mL)	–	MIC in TSB/mouse serum [2]: 1.19 µM
CC[C@H](C)[C@H](NC(=O)[C@H](Cc1ccc(O)cc1)NC(=O)[C@@H](NC(=O)[C@@H]1CCCN1C(=O)[C@H](CCCNC(=N)N)NC(=O)[C@H](CC(N)=O)NC(=O)[C@H](CC(N)=O)NC(=O)[C@H](CCCN)N=C(N(C)C)N(C)C)C(C)C)C(=O)N1CCC[C@H]1C(=O)N[C@@H](CCCNC(=N)N)C(=O)N1CCC[C@H]1C(=O)N[C@@H](CCCNC(=N)N)C(=O)N1CCC[C@H]1C(=O)N1CCC[C@H]1C(=O)N[C@@H](Cc1c[nH]cn1)C(=O)N1CCC[C@H]1C(=O)N[C@@H](CCCN)C(=O)N[C@@H](CC(C)C)C(N)=O [Api 134, Guan-ONNRPVYIPRPRPPHPOL-NH2, reference compound] ({Orn(α-tetramethylguanidino)}-NNRPVYIPRPRPPHP[Orn]L-NH2)	1.78 (≈ 4 µg/mL)	–	MIC in TSB/mouse serum [2]: 7.12 µM
CC[C@H](C)[C@H](NC(=O)[C@H](CCCN)NC(=O)[C@H](CCCNC(=N)N)NC(=O)[C@@H]1CCCN1C(=O)[C@@H]1CCCN1C(=O)[C@H](CCCNC(=N)N)NC(=O)[C@@H]1CCCN1C(=O)[C@H](CCCNC(=N)N)NC(=O)[C@@H]1CCCN1C(=O)[C@H](CC(C)C)NC(=O)[C@H](Cc1ccc(O)cc1)NC(=O)[C@@H]1CCCN1C(=O)[C@@H]1CCCN1C(=O)[C@H](CCCCN)NC(=O)[C@H](CC(=O)O)NC(=O)[C@@H](N)C(C)C)C(=O)N[C@@H](Cc1ccc(O)cc1)C(=O)N[C@@H](CC(N)=O)C(=O)N[C@@H](CCCN)C(N)=O [Onc 72, VDKPPYLPRPRPPROIYNO-NH2] (H-VDKPPYLPRPRPPR[Orn]IYN[Orn]-NH2)	1.7 (≈ 3.92 µg/mL)	–	MIC in TSB/mouse serum [2]: 1.7 µM
Guan-ONO(sPEG^750-GAARSG)RPVYIPRPRPPHPRL-OH ({Guan″}-[Orn]N[Orn]RPVYIPRPRPPHPRL-OH; not fully specified (residue 3)) [Api 301 (sPEG^750-GAARSG)]	5.6	55	–
Guan-ONO(sPEG^750-GRSG)RPVYIPRPRPPHPRL-OH ({Guan″}-[Orn]N[Orn]RPVYIPRPRPPHPRL-OH; not fully specified (residue 3)) [Api 301 (sPEG^750-GRSG)]	1.5	30	–
Guan-ONO(tPEG^750-GAARSG)RPVYIPRPRPPHPRL-OH ({Guan″}-[Orn]N[Orn]RPVYIPRPRPPHPRL-OH; not fully specified (residue 3)) [Api 301 (tPEG^750-GAARSG)]	2.8	50	–
Guan-ONO(tPEG^750-GARSG)RPVYIPRPRPPHPRL-OH ({Guan″}-[Orn]N[Orn]RPVYIPRPRPPHPRL-OH; not fully specified (residue 3)) [Api 301 (tPEG^750-GARSG)]	1.5	45	–
Guan-ONO(tPEG^750-GRSG)RPVYIPRPRPPHPRL-OH (Guan-[Orn]N[Orn]RPVYIPRPRPPHPRL-OH; not fully specified (residue 3)) [Api 301 (tPEG^750-GRSG)]	2.9	55	–
Guan-ONO(tPEG^5000-GAARSG)RPVYIPRPRPPHPRL-OH ({Guan″}-[Orn]N[Orn]RPVYIPRPRPPHPRL-OH; not fully specified (residue 3)) [Api 301 (tPEG^5000-GAARSG)]	>47.5	–	uncleaved peptide remaining after the indicated time (instead of half-life) ([3]; 5 h): 78%
Guan-ONO(tPEG^5000-GARSG)RPVYIPRPRPPHPRL-OH ({Guan″}-[Orn]N[Orn]RPVYIPRPRPPHPRL-OH; not fully specified (residue 3)) [Api 301 (tPEG^5000-GARSG)]	9.2	–	uncleaved peptide remaining after the indicated time (instead of half-life) ([3]; 6 h): 62%
Guan-ONO(tPEG^5000-GRSG)RPVYIPRPRPPHPRL-OH ({Guan″}-[Orn]N[Orn]RPVYIPRPRPPHPRL-OH; not fully specified (residue 3)) [Api 301 (tPEG^5000-GRSG)]	>38	–	uncleaved peptide remaining after the indicated time (instead of half-life) ([3]; 6 h): 75%
Guan-OO(sPEG^750-GAARSG)NRPVYIPRPRPPHPRL-OH (Guan-[Orn][Orn]NRPVYIPRPRPPHPRL-OH; not fully specified (residue 2)) [Api 300 (sPEG^750-GAARSG)]	2.8	45	–
Guan-OO(tPEG^750-GAARSG)NRPVYIPRPRPPHPRL-OH (Guan-[Orn][Orn]NRPVYIPRPRPPHPRL-OH; not fully specified (residue 2)) [Api 300 (tPEG^750-GAARSG)]	2.8	35	–
Guan-OO(tPEG^750-GARSG)NRPVYIPRPRPPHPRL-OH (Guan-[Orn][Orn]NRPVYIPRPRPPHPRL-OH; not fully specified (residue 2)) [Api 300 (tPEG^750-GARSG)]	1.5	45	–
Guan-OO(tPEG^750-GRSG)NRPVYIPRPRPPHPRL-OH (Guan-[Orn][Orn]NRPVYIPRPRPPHPRL-OH; not fully specified (residue 2)) [Api 300 (tPEG^750-GRSG)]	2.9	40	–
Guan-OO(tPEG^5000-GAARSG)NRPVYIPRPRPPHPRL-OH (Guan-[Orn][Orn]NRPVYIPRPRPPHPRL-OH; not fully specified (residue 2)) [Api 300 (tPEG^5000-GAARSG)]	25.4	–	uncleaved peptide remaining after the indicated time (instead of half-life) ([3]; 6 h): 76%
Guan-OO(tPEG^5000-GRSG)NRPVYIPRPRPPHPRL-OH (Guan-[Orn][Orn]NRPVYIPRPRPPHPRL-OH; not fully specified (residue 2)) [Api 300 (tPEG^5000-GRSG)]	>44.8	–	uncleaved peptide remaining after the indicated time (instead of half-life) ([3]; 6 h): 75%
H-GNNRPVYIPQPRPPHPRL-OH [Apidaecin 1b, reference compound]	0.48	–	MIC in TSB/mouse serum [2]: 1.75 µM
tPEG^750-GAR-VDKPPYLPRPRPHypRHypTleYNO-NH2 (tPEG750-GARVDKPPYLPRPRP[Hyp]R[Hyp][Tle]YN[Orn]-NH2; not fully specified) [tPEG^750-GAR-Onc 110]	48.4	–	uncleaved peptide remaining after the indicated time (instead of half-life) ([3]; 6 h): 64%
tPEG^5000-GAR-VDKPPYLPRPRPHypRHypTleYNO-NH2 (tPEG5000-GARVDKPPYLPRPRP[Hyp]R[Hyp][Tle]YN[Orn]-NH2) [tPEG^5000-GAR-Onc 110]	–	–	uncleaved peptide remaining after the indicated time (instead of half-life) ([3]; 6 h): 96%
tPEG^5000-GAR-VDKPPYLPRPRPPROIYNO-NH2	–	–	cleaved bond (mouse serum (100%)): R-V

Reference: patent US9856298B2 (priority 2011, dated 2018)
